According to patent US20240409557A1, “5,6-FUSED AND 6,6-FUSED BICYCLIC ALCOHOLS AND ETHERS AND COMPOSITIONS FOR USE AS 15-PROSTAGLANDIN DEHYDROGENASE MODULATORS” (AMGEN INC., priority 2023, published 2024):

What was measured:
[1] = target: T1, human recombinant 15-PGDH (Homo sapiens, UniProt P15428); assay: Recombinant 15-PGDH enzymatic inhibition assay (PGDH-Lumi, NADH signal); type: biochemical; settings: recombinant 15-PGDH; 15 min pre-incubation, 60 min reaction with PGE2 and NAD+, NADH signal
T1 sequence (P15428 1-266): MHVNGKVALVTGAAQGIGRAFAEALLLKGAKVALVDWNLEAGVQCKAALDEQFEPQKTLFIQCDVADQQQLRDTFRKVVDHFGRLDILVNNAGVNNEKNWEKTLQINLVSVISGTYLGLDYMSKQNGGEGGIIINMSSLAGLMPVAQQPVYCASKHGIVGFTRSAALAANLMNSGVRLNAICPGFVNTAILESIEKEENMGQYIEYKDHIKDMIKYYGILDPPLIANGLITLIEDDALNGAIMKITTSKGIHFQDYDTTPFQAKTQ
Description: These assays measured 15-PGDH enzymatic activity by quantifying the amount of NADH produced during a 60-minute reaction initiated by the addition of PGE2 and NAD+. Under the conditions of these experiments, the increase of NADH signal upon oxidation of PGE2 and reduction of NAD+ was linearly proportional to 15-PGDH enzymatic activity. The recombinant human, mouse, rat and dog 15-PGDH enzymatic assays were performed in a 25 μL volume of reaction buffer containing 50 mM Tris, pH 7.5, 0.01% Tween-20 and […] DTT in a 384-well microtiter plate. In concentration-response experiments with tested compounds, 22 concentrations from 2-fold serial dilutions in DMSO were pre-incubated with 15-PGDH for 15 minutes at room temperature. Then, PGE2 and β-NAD+ were added to initiate the 15-PGDH reaction. After 60 minutes at room temperature, the reaction was quenched and NADH signal was measured using a microtiter plate reader.
The following data (Table 27-1) provides the IC50 in μM of each compound for inhibiting enzymatic activity of the recombinant 15-PGDH in the assay described above.

15-PGDH in A549 cells = target: T2, 15-PGDH in A549 cells (Homo sapiens, UniProt P15428); assay: A549 cellular 15-PGDH assay (PGE2 accumulation, HTRF); type: cell-based; settings: interleukin-stimulated, inhibitor 24 hrs, PGE2 by competitive HTRF, read-out: A549 Cell Assay IC50
T2 construct: endogenous in cells; host or cells: A549
T2 sequence (P15428 1-266): T1 sequence (P15428 1-266)
Excerpt: This assay was used for the quantification of IL-13 induced Native Prostaglandin E2 (PGE2) produced by A549 cells (epithelial cells from lung carcinoma) in cell culture supernatants. […] PGE2 was detected in a competitive HTRF assay by using anti PGE2 antibody labeled with Europium cryptate, and PGE2 labeled with […]. The PGE2 present in the sample competes with the binding between the two HTRF detection solutions (reagents) and thereby prevents FRET from occurring. The specific signal is inversely proportional to the PGE2 concentration. From this binding data, IC50 values were calculated.

IC50 [1] [nM]	IC50 (15-PGDH in A549 cells) [nM]	SMILES
0.799	2.22	Cn1cc2cc(-c3ccc4nc([C@]5(O)C[C@@](C)(C#N)C5)sc4n3)cnc2n1 (single isomer, unassigned) [Compound C91C, cis-3-hydroxy-1-methyl-3-(5-(2-methyl-2H-pyrazolo[3,4-b]pyridin-5-yl)[1,3]thiazolo[5,4-b]pyridin-2-yl)cyclobutanecarbonitrile]
21700	289	Cn1nnc2cc(-c3ccc4ccc([C@H](O)C5CCOCC5)cc4n3)cnc21 (single isomer, unassigned) [Compound D3R]
4.76	0.494	Cn1cc2cc(-c3ccc4sc([C@H](O)C5CC(F)(F)C5)nc4n3)cnc2n1 (single isomer, unassigned) [Compound B74R]
0.758	1.93	O[C@H](c1cc2ccc(-c3cnc4[nH]ncc4c3)nc2s1)C1CC(F)(F)C1 (single isomer, unassigned) [Compound B47S]
488	237	Cc1c([C@@H](O)C2CCOCC2)sc2nc(-c3cnc4nn(C)cc4c3)ccc12 (single isomer, unassigned) [Compound B90S]
8.74	61.7	O[C@@H](c1cc2ccc(-c3ccc4[nH]ncc4c3)nc2s1)C1CCOCC1 (single isomer, unassigned) [Compound B37R]
1.09	3.95	Cn1nnc2cc(-c3ncc4cc([C@]5(O)C[C@@H](OC(F)(F)F)C5)sc4n3)cnc21 [Compound C111C, cis-1-(2-(3-methyl-3H-[1,2,3]triazolo[4,5-b]pyridin-6-yl)thieno[2,3-d]pyrimidin-6-yl)-3-(trifluoromethoxy)cyclobutanol]
0.423	0.18	Cn1cc2cc(-c3ccc4cc([C@]5(O)C[C@]6(CCO6)C5)sc4n3)cnc2n1 (single isomer, unassigned) [Compound C56C, cis-6-(6-(2-methyl-2H-pyrazolo[3,4-b]pyridin-5-yl)thieno[2,3-b]pyridin-2-yl)-1-oxaspiro[3.3]heptan-6-ol]
1.53	1.45	Cn1cc2cc(-c3ccc4cc([C@@H](O)[C@H]5C[C@@H](C(F)(F)F)C5)sc4n3)cnc2n1 (single isomer, unassigned) [Compound B84SC]
5.14	3.44	Cn1cc2cc(-c3cnc4cc([C@@H](O)C5CC(F)(F)C5)sc4n3)cnc2n1 [Compound B92S, (S)-(3,3-difluorocyclobutyl)(3-(2-methyl-2H-pyrazolo[3,4-b]pyridin-5-yl)thieno[2,3-b]pyrazin-6-yl)methanol]
5.13	1.11	Cc1c([C@@H](O)C2CC(F)(F)C2)sc2nc(-c3cnc4nn(C)cc4c3)ccc12 (single isomer, unassigned) [Compound B83S]
0.426	1.11	CO[C@]1(C(F)(F)F)C[C@](O)(c2cc3cnc(-c4cnc5nn(C)cc5c4)nc3s2)C1 (single isomer, unassigned) [Compound C113T, trans-3-methoxy-1-(2-(2-methyl-2H-pyrazolo[3,4-b]pyridin-5-yl)thieno[2,3-d]pyrimidin-6-yl)-3-(trifluoromethyl)cyclobutanol]
9.58	5.27	Cn1cc2cc(-c3ccc4nc([C@@H](O)C5CC(F)(F)C5)sc4n3)cnc2n1 (single isomer, unassigned) [Compound B72S]
4.59	3.75	Nc1ncc(-c2ccc3cc(C4(O)CC(F)(F)C4)sc3n2)cn1 [Compound C38, 1-(6-(2-amino-5-pyrimidinyl)thieno[2,3-b]pyridin-2-yl)-3,3-difluorocyclobutanol]
2.93	39.4	CC(O)c1cc2c(-c3ccnn3C)cc(-c3cnc4nn(C)cc4c3)nc2s1 (stereo not shown) [Compound B6, 1-(4-(1-methyl-1H-pyrazol-5-yl)-6-(2-methyl-2H-pyrazolo[3,4-b]pyridin-5-yl)thieno[2,3-b]pyridin-2-yl)ethan-1-ol]
0.26	0.723	Cn1cnc(-c2ccc3cc([C@H](O)C4CC(F)(F)C4)sc3n2)cc1=O (single isomer, unassigned) [Compound B49R]
426	305	Cn1cc2cc(-c3ccc4ccc([C@@H](O)C5CCOCC5)cc4n3)cnc2n1 (single isomer, unassigned) [Compound D4S]
0.308	0.657	Cc1cn2ccc(-c3ccc4cc([C@H](O)C5CC(F)(F)C5)sc4n3)cc2n1 (single isomer, unassigned) [Compound B55R]

IC50 [1] [nM]	IC50 (15-PGDH in A549 cells) [nM]	SMILES
0.244	0.381	Cn1cc2cc(-c3ccc4cc([C@H](O)[C@@H]5CCOC5)sc4n3)cnc2n1 (single isomer, unassigned) [Compound B19RR]
235	–	COCC(O)(c1cc2ccc(-c3cnc4nn(C)cc4c3)nc2s1)C(F)(F)F (stereo not shown) [Compound C16, 1,1,1-trifluoro-3-methoxy-2-(6-(2-methyl-2H-pyrazolo[3,4-b]pyridin-5-yl)thieno[2,3-b]pyridin-2-yl)-2-propanol]
308	–	Cn1cc2cc(-c3ccc4cc([C@@H](O)CCC(F)(F)F)sc4c3)cnc2n1 (single isomer, unassigned) [Compound B60S]
64.3	–	Cn1cc2cc(-c3cc(-c4ccnn4C)nc4sc(C(O)C5CCC5)cc34)cnc2n1 (stereo not shown) [Compound B3, cyclobutyl(4-(2-methyl-2H-pyrazolo[3,4-b]pyridin-5-yl)-6-(1-methyl-1H-pyrazol-5-yl)thieno[2,3-b]pyridin-2-yl)methanol]
184	–	Cn1nc2cc(-c3ccc4cc([C@@H](O)C5CCOCC5)sc4n3)cnc2n1 (single isomer, unassigned) [Compound B39S]
13.2	–	O[C@H](c1cc2ccc(-c3cncnc3)nc2s1)C1CC(F)(F)C1 (single isomer, unassigned) [Compound B57S]
225	–	Cn1cc2cc(-c3ccc4cc(C(C)(O)C(F)(F)F)sc4n3)cnc2n1 (stereo not shown) [Compound C2, 1,1,1-trifluoro-2-(6-(2-methyl-2H-pyrazolo[3,4-b]pyridin-5-yl)thieno[2,3-b]pyridin-2-yl)-2-propanol]
9.35	–	CCCC(O)c1cc2ccc(-c3cnc4nn(C)cc4c3)cc2s1 (stereo not shown) [Compound B54, 1-(6-(2-methyl-2H-pyrazolo[3,4-b]pyridin-5-yl)-1-benzothiophen-2-yl)-1-butanol]
78.4	–	CC(O)c1cc2c(-c3cnc4nn(C)cc4c3)cc(-c3ccnn3C)nc2s1 (stereo not shown) [Compound B5, 1-(4-(2-methyl-2H-pyrazolo[3,4-b]pyridin-5-yl)-6-(1-methyl-1H-pyrazol-5-yl)thieno[2,3-b]pyridin-2-yl)ethanol]
195	–	CCC(C)(O)c1cc2ccc(-c3cnc4nn(C)cc4c3)nc2s1 (stereo not shown) [Compound C10, 2-(6-(2-methyl-2H-pyrazolo[3,4-b]pyridin-5-yl)thieno[2,3-b]pyridin-2-yl)-2-butanol]
7.16	–	Cc1n[nH]c2ccc(-c3ccc4cc([C@H](O)C5CCOCC5)sc4n3)cc12 (single isomer, unassigned) [Compound B40R]
1010	–	Cc1cc2[nH]ncc2cc1-c1ccc2cc([C@@H](O)C3CCOCC3)sc2n1 (single isomer, unassigned) [Compound B38S]
20.7	–	CN1CCC(C(O)c2cc3ccc(-c4cnc5nn(C)cc5c4)nc3s2)C1 (stereo not shown) [Compound B62, (6-(2-methyl-2H-pyrazolo[3,4-b]pyridin-5-yl)thieno[2,3-b]pyridin-2-yl)(1-methyl-3-pyrrolidinyl)methanol]
466	–	C[C@@H]1CC[C@@]1(O)c1cc2ccc(-c3cnc4nn(C)cc4c3)nc2s1 (single isomer, unassigned) [Compound C64SR]
419	–	Cn1cc2cc(-c3ccc4cc(C(C)(C)O)sc4n3)cnc2n1 [Compound C9, 2-(6-(2-methyl-2H-pyrazolo[3,4-b]pyridin-5-yl)thieno[2,3-b]pyridin-2-yl)-2-propanol]
1880	–	O[C@H](c1cc2ccc(-c3ccc4[nH]ncc4c3)nc2s1)C1CCOCC1 (single isomer, unassigned) [Compound B37S]
155	–	[2H][C@@](O)(c1cc2ccc(-c3cnc4nn(C)cc4c3)nc2s1)C1CCOCC1 (single isomer, unassigned) [Compound B66S]
5.64	–	Cn1cc2cc(-c3ccc4cc([C@@H](O)C5CCC(F)(F)CC5)sc4n3)cnc2n1 (single isomer, unassigned) [Compound B31S]
